From patent US20250230193A1, “CYCLIC COMPOUND HAVING SELECTIVE KRAS INHIBITORY EFFECT ON HRAS AND NRAS” (CHUGAI SEIYAKU KABUSHIKI KAISHA, priority 2022, published 2025)
Where a SMILES comes first, the peptide text is derived from it. Bridges are numbered along the chain shown (N, C = ends). [ ]: non-standard residue; d: D form. The star is where a group is joined. hPhe(3-Cl-4-CF3) = N[C@@H](CCc1ccc(C(F)(F)F)c(Cl)c1)C(=O)O; NPrPhe(4-CF3) = CCCN[C@@H](Cc1ccc(C(F)(F)F)cc1)C(=O)O; NMeGly(cPent) = CN[C@H](C(=O)O)C1CCCC1; NMeGly(cBu) = CN[C@H](C(=O)O)C1CCC1; Hyp = O=C(O)[C@@H]1C[C@@H](O)CN1; NMeF = CN[C@@H](Cc1ccccc1)C(=O)O; NMeD = CN[C@@H](CC(=O)O)C(=O)O; NMeL = CN[C@@H](CC(C)C)C(=O)O; Morpholide = C1CN(*)CCO1; NMeA = CN[C@@H](C)C(=O)O; Ac5c = NC1(C(=O)O)CCCC1; Aze = O=C(O)[C@@H]1CCN1; Ac4c = NC1(C(=O)O)CCC1; Sar = CNCC(=O)O

How the values were obtained:
[1] = target: GDP-bound HRAS wild-type protein (Homo sapiens, UniProt P01112); assay: Binding to HRAS by surface plasmon resonance (SPR), Single Cycle Kinetics; details: SPR; for HRAS/KRAS (ratio of KD value for HRAS to KD value for KRAS) / HRAS/KRAS (ratio of KD value with respect to HRAS to KD value with respect to KRAS): GDP-bound HRAS wild-type vs GDP-bound KRAS wild-type
Sequence of GDP-bound HRAS wild-type protein (P01112 whole entry): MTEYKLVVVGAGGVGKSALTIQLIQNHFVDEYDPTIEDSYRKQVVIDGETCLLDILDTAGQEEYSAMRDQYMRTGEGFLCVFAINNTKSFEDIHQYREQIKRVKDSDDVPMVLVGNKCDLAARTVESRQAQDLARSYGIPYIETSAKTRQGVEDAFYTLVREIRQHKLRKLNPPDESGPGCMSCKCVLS

[2] = target: GDP-bound NRAS wild-type protein (Homo sapiens, UniProt P01111); assay: Binding to NRAS by surface plasmon resonance (SPR), Single Cycle Kinetics; details: SPR; for NRAS/KRAS (ratio of KD value for NRAS to KD value for KRAS) / NRAS/KRAS (ratio of KD value with respect to NRAS to KD value with respect to KRAS): GDP-bound NRAS wild-type vs GDP-bound KRAS wild-type
Sequence of GDP-bound NRAS wild-type protein (P01111 whole entry): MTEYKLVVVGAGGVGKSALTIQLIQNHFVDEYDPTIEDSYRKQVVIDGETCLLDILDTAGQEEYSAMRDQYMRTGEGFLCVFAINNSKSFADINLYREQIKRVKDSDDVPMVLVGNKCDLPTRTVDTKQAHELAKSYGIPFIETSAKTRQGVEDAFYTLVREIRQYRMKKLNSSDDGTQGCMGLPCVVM

In the case of CC[C@H](C)[C@@H]1NC(=O)[C@H](CC(C)C)N(C)C(=O)C[C@@H](C(=O)N2CCOCC2)N(C)C(=O)[C@H](C2CCCC2)N(C)C(=O)C2(CCCC2)NC(=O)[C@@H]2CCCN2C(=O)[C@H](CCc2ccc(C(F)(F)F)c(Cl)c2)NC(=O)CN(C)C(=O)[C@H](Cc2ccccc2)N(C)C(=O)CN(C)C(=O)CN(C)C1=O [PP0039] ([NMeL]I[Sar][Sar][NMeF][Sar][hPhe(3-Cl-4-CF3)]P[Ac5c][NMeGly(cPent)][NMeD]-Morpholide; lactam N-11), the “HRAS/KRAS (ratio of KD for GDP-bound HRAS wild-type to KD for KRAS)” value [1] is reported as “C (A compound having a KD ratio of 0.1 or more and less than 3 is denoted as C)” and the “NRAS/KRAS (ratio of KD for GDP-bound NRAS wild-type to KD for KRAS)” value [2] is reported as “C (A compound having a KD ratio of 0.1 or more and less than 3 is denoted as C)”.

In the case of CCO[C@@H]1C[C@H]2C(=O)NC3(CC(C)(C)C3)C(=O)N(C)[C@@H](C3CCCC3)C(=O)N(C)[C@H](C(=O)N(C)C)CC(=O)N(C)[C@@H](C(C)C)C(=O)N[C@@H]([C@@H](C)CC)C(=O)N(C)CC(=O)N(C)[C@H]3C/C=C\CCN(C3=O)[C@@H](Cc3ccc(C(F)(F)F)cc3)C(=O)N(C)CC(=O)N[C@@H](CCc3ccc(C(F)(F)F)c(OC)c3)C(=O)N2C1 [PP1979], the “HRAS/KRAS (ratio of KD value for HRAS to KD value for KRAS)” value ([1]; KD ratio) is reported as “A (a compound having 10 or more and less than 20 is denoted as A)” and the “NRAS/KRAS (ratio of KD value for NRAS to KD value for KRAS)” value ([2]; KD ratio) is reported as “AA (a compound having 20 or more is denoted as AA)”.

With CC[C@H](C)[C@@H]1NC(=O)[C@H](CC(C)C)N(C)C(=O)C[C@@H](C(=O)N2CCOCC2)N(C)C(=O)[C@H](C2CCCC2)N(C)C(=O)C2(CCC2)NC(=O)[C@@H]2C[C@@H](OCC3CC3)CN2C(=O)[C@H](CCc2cc(F)c(C(F)(F)F)c(F)c2)NC(=O)CN(C)C(=O)[C@H](Cc2ccc(C(F)(F)F)cc2)N2CCCC[C@@H](C2=O)N(C)C(=O)CN(C)C1=O [PP1000] the “HRAS/KRAS (ratio of KD value with respect to HRAS to KD value with respect to KRAS)” value ([1]; KD ratio) was “B (a compound having 3 or more and less than 10 is denoted as B)” and the “NRAS/KRAS (ratio of KD value with respect to NRAS to KD value with respect to KRAS)” value ([2]; KD ratio) was “B (a compound having 3 or more and less than 10 is denoted as B)”.

For CCCN1C(=O)[C@@H]2CCN2C(=O)[C@H](C)N(C)C(=O)[C@H]([C@@H](C)CC)NC(=O)[C@H](CC(C)C)N(C)C(=O)C[C@@H](C(=O)N2CCOCC2)N(C)C(=O)[C@H](C2CCCC2)N(C)C(=O)C2(CCC2)NC(=O)[C@@H]2C[C@@H](OCC)CN2C(=O)[C@H](CCc2ccc(C(F)(F)F)c(Cl)c2)NC(=O)CN(C)C(=O)[C@@H]1Cc1ccc(C(F)(F)F)cc1 [PP0406] ([NMeL]I[NMeA][Aze][NPrPhe(4-CF3)][Sar][hPhe(3-Cl-4-CF3)][Hyp](Et)[Ac4c][NMeGly(cPent)][NMeD]-Morpholide; lactam N-11), the “HRAS/KRAS (ratio of KD for GDP-bound HRAS wild-type to KD for KRAS)” value [1] was “B (a compound having 3 or more and less than 10 is denoted as B)” and the “NRAS/KRAS (ratio of KD for GDP-bound NRAS wild-type to KD for KRAS)” value [2] was “C (A compound having a KD ratio of 0.1 or more and less than 3 is denoted as C)”.

CCOC[C@H]1C(=O)N[C@@H]([C@@H](C)CC)C(=O)N(C)CC(=O)N(C)[C@H]2C/C=C\CCN(C2=O)[C@@H](Cc2ccc(C)cc2)C(=O)N(C)CC(=O)N[C@@H](CCc2cc(F)c(C(F)(F)F)c(F)c2)C(=O)N2C[C@H](OCC)C[C@H]2C(=O)NC2(CC(C)(C)C2)C(=O)N(C)[C@@H](C2CCCC2)C(=O)N(C)[C@H](C(=O)N(CC)CC)CC(=O)N1C [PP2408] was tested, and the “HRAS/KRAS (ratio of KD value with respect to HRAS to KD value with respect to KRAS)” value [1] was “A (a compound having 10 or more and less than 20 is denoted as A)” and the “NRAS/KRAS (ratio of KD value with respect to NRAS to KD value with respect to KRAS)” value [2] was “A (a compound having 10 or more and less than 20 is denoted as A)”.

With CCO[C@@H]1C[C@H]2C(=O)N(C)C3(CCC3)C(=O)N(C)[C@@H](C3CCCC3)C(=O)N(C)[C@H](C(=O)N(C)C)CC(=O)N(C)[C@@H](CC)C(=O)N[C@@H]([C@@H](C)CC)C(=O)N(C)CC(=O)N(C)[C@H]3C/C=C\CCN(C3=O)[C@@H](Cc3ccc(C(F)(F)F)cc3)C(=O)N(C)CC(=O)N[C@@H](CCc3cc(F)c(C(F)(F)F)c(F)c3)C(=O)N2C1 [PP1779] the “HRAS/KRAS (ratio of KD value for HRAS to KD value for KRAS)” value ([1]; KD ratio) was “B (a compound having 3 or more and less than 10 is denoted as B)” and the “NRAS/KRAS (ratio of KD value for NRAS to KD value for KRAS)” value ([2]; KD ratio) was “A (a compound having 10 or more and less than 20 is denoted as A)”.

CCCN1C(=O)[C@@H]2CCN2C(=O)[C@H](C)N(C)C(=O)[C@H]([C@@H](C)CC)NC(=O)[C@H](C2CCC2)N(C)C(=O)C[C@@H](C(=O)N2CCOCC2)N(C)C(=O)[C@H](C2CCCC2)N(C)C(=O)C2(CCCC2)NC(=O)[C@@H]2CCCN2C(=O)[C@H](CCc2ccc(C(F)(F)F)c(Cl)c2)NC(=O)CN(C)C(=O)[C@@H]1Cc1ccc(C(F)(F)F)cc1 [PP0192] ([NMeGly(cBu)]I[NMeA][Aze][NPrPhe(4-CF3)][Sar][hPhe(3-Cl-4-CF3)]P[Ac5c][NMeGly(cPent)][NMeD]-Morpholide; lactam N-11) was tested, and the “HRAS/KRAS (ratio of KD for GDP-bound HRAS wild-type to KD for KRAS)” value [1] was “B (a compound having 3 or more and less than 10 is denoted as B)” and the “NRAS/KRAS (ratio of KD for GDP-bound NRAS wild-type to KD for KRAS)” value [2] was “C (A compound having a KD ratio of 0.1 or more and less than 3 is denoted as C)”.
